The subject of series [1] is Syrian golden hamsters (high-fat diet, hyperlipidemia model). Nature of the series: In vivo lipid-lowering activity in high-fat diet golden hamsters. To be noted: for CHOL / HDL-C / LDL-C / TG: high-fat diet, serum; for contents of cholesterol (CHOL), triglyceride (TG) and low density lipoprotein (LDL-C) in the blood: hyperlipidemia model. On the set-up: species or system Syrian golden hamster. As to the method:
After adaptively feeding Syrian golden hamsters (male, 80-100 g) for a week, all hamsters were fed with high-fat diet. Two weeks later, blood was collected from the orbital venous plexus, serum was separated, and levels of total cholesterol (TC), triglyceride (TG), high-density lipoprotein (HDL-C) and low-density lipoprotein (LDL-C) in serum were measured. They were evenly grouped according to blood lipid levels into […]: model control group, A1 intragastric administration group, A1 intraperitoneal administration group, A5 intragastric administration group, A5 intraperitoneal administration group, A55 intragastric administration group, A55 intraperitoneal administration group, B5 intragastric administration group, B5 intraperitoneal administration group, and the animals in each group were continued to be administered with high fat diet. […] […] Blood lipid levels and body weights were measured every 10 days. After three weeks, the animals were sacrificed and the liver was stored in a −80° C. refrigerator.

In series [2] the target is T1, α1A-adrenergic receptor (α1A-AR) (Homo sapiens, UniProt P35348).
T1 construct: expressed in transfected cells; host or cells: HEK293
T1 sequence (P35348 1-466): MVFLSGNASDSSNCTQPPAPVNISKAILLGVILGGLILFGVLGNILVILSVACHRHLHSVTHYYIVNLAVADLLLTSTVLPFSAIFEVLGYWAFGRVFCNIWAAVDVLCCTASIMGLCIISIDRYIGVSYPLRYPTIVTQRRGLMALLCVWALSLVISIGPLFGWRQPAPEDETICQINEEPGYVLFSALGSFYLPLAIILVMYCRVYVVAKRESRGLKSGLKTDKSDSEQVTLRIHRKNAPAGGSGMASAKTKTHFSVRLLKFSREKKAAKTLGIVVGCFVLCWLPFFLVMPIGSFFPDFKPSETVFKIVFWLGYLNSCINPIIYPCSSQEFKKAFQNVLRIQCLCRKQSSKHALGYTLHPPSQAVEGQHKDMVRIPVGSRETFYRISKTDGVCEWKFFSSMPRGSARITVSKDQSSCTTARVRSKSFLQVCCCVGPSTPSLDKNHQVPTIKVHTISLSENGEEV
Put plainly: Antagonistic activity on α1A-AR: calcium fluorescence in HEK293 cells stimulated with phenylephrine. The series is classed as cell-based. To be noted: HEK293 cells expressing α1A-AR; agonist phenylephrine 30 nM; calcium fluorescence; read-out: α1A-AR/IC50. Here is the method: HEK293 cells stably expressing α1A-adrenergic receptor (α1A-AR) and G protein […] were seeded in 96-well plates. After 24 hours of culture, the medium was removed, and 40 μL of Hank's balanced salt solution (HBSS: containing 5.4 mM KCl, 0.3 mM Na2HPO4, 0.4 mM KH2PO4, 4.2 mM NaHCO3, 1.3 mM CaCl2, 0.5 mM MgCl2, 0.6 mM MgSO4, 137 mM NaCl, 5.6 mM D-glucose and 250 μM sulfinpyridone, pH 7.4) containing 2 μM of MFluo-4AM was added to each well, and incubated for 45 minutes in an incubator. The dye was aspirated and 50 μL of HBSS containing a test compound or 1% DMSO (negative control) was added and incubated for 10 minutes at room temperature, and then read with Flex Station 3 microplate reader. At the specified time point, 25 μL of agonist phenylephrine (final concentration 30 nM) will be automatically added by the detector into the reaction system, and simultaneously stimulated with 485 nm light, and the change in intensity of fluorescence caused by the change in the intracellular calcium ion concentration was detected at 525 nm. […] The response rate of different doses of the same drug was analyzed by GraphPad Prism software to obtain a dose-response curve and the IC50 value was measured. Each experiment was performed in […].

For another series, the system named is HepG2 cells. Nature of the series: In vitro lipid-lowering activity: DiI-LDL uptake in HepG2 cells. The series is classed as cell-based. To be noted: Homo sapiens, test compound 5 uM, 24 h, DiI-LDL 20 ug/ml, 3 h, FLU of sample group/FLU of blank group x100%, read-out: LDL uptake rate. As to the method:
HepG2 cells were inoculated in 24-well plates, cultured in DMEM containing 10% FBS for 24 h or 48 h, and then transferred to DMEM containing 2% defatted serum and cultivated for 24 h. The old culture solution was discarded and replaced with new 2% defatted serum DMEM, and a test compound (the working concentration of which is 5 uM, triplicate for each sample) was added and incubated for 24 h. The old culture solution was abandoned and DMEM containing DiI-LDL (20 ug/ml) was added (300 ul/per 24 wells), incubated for 3 h. DMEM containing DiI-LDL was discarded, and cells were rinsed twice with PBS containing 0.4% BSA, and 3 times with PBS to remove excess DiI-LDL. Isopropanol was added (500 ul/per well of a 24-well plate), and was kept in darkness. After shaken for 20 minutes, 200 ul of supernatant was sucked to a black fluorescent plate, and fluorescence intensity (FLU) was detected at excitation light 520 nm and emission light 578 nm. The experimental results were calculated: LDL uptake rate=(FLU value of sample group to be tested/FLU value of blank group)×100%.

The next series is described as follows: Rat pharmacokinetics. The series is classed as in vivo. On the set-up: AUC(0-t) / AUC(0-inf): concentration or dose not given beside the values. To be noted: plasma; for AUC(0-inf): read-out: AUCINF—obs; for clearance: read-out: CL—obs (converted); for MRT inf: read-out: MRTINF—obs; for Vd: read-out: Vss—obs. As to the method:
A1 10 μL of a plasma sample was taken in a centrifuge tube and 100 μL of methanol:acetonitrile (1:1, v/v) was added, vortexed for 1 min, centrifugated (14000 rpm) for 5 min, and 50 μL supernatant was taken, mixed with equal volume of water, and analysised after vortex mixing. The linear range of A1 is: 0.1-300 ng/mL for oral administration and 1-3000 ng/mL for intravenous injection.
A55 10 μL of a plasma sample was taken in a centrifuge tube and 100 μL of methanol:acetonitrile (1:1, v/v) was added, vortexed for 1 min, centrifugated (14000 rpm) for 5 min, and 50 μL supernatant was taken, mixed with equal volume of water, and analysised after vortex mixing. The linear range of A55 is: 0.1-300 ng/mL for oral administration and 0.3-3000 ng/mL for intravenous injection.

The mark [3] stands for this setting: abdominal (intraperitoneal) 30 mg/kg once a day for three weeks.
Setting [4] is: oral (intragastric) 30 mg/kg once a day for three weeks.

The structures appear in SMILES notation. Like-named read-outs stand apart in the source and are kept apart here.

In series [1] (Dose 30, oral), `COc1ccc2[nH]c3c(c2c1)CC1c2cc(OCc4ccccc4F)c(OC)cc2CCN1C3` (centres unmarked) [Example C9, 2-((2-Fluorobenzyl)oxo)-3,12-dimethoxy-5,6,8,9,14,14a-hexahydroindole[3′,2′:4,5]pyridine[2,1-a]isoquinoline] registered a TC of 36.87 ± 23.13 mmol/L.

For `COc1ccc2[nH]c3c(c2c1)CC1c2cc(OC)c(OCc4ccccc4)cc2CCN1C3c1ccc(F)cc1` (centres unmarked) [Example B55, 3-(benzyloxy)-8-(4-fluorophenyl)-2,12-dimethoxy-5,6,8,9,14,14a-hexahydroindole[3′,2′:4,5]pyridine[2,1-a]isoquinoline], the IC50 in series [2] is above 100 µM. Moreover, the activity at 5 µM in the series on HepG2 cells is 125%.

With `COc1ccc2c(c1)c1c(n2CO)CN2CCc3cc(OCc4ccccc4F)c(OC)cc3C2C1` (centres unmarked) [Example A63, (3-((2-fluorobenzyl)oxy)-2,12-dimethoxy-5,6,14,14a-tetrahydroindolo[3′,2′:4,5]pyridine[2,1-a]isoquinoline-9(8H)-yl)methanol], in series [2], the IC50 was 57.7 µM. In addition, in the series with HepG2 cells, the activity at 5 µM was determined as 138%.

Consider `COc1ccc2[nH]c3c(c2c1)CC1c2cc(OC)c(OCc4ccc(C)cc4)cc2CCN1C3` (centres unmarked) [Example C59], for which the IC50 in series [2] was above 100 µM. Moreover, the activity at 5 µM with HepG2 cells is 147%.

By AUC(0-t) is commonly meant exposure summed from dosing to a finite time, without extrapolation to infinity. One may read the Cmax as the maximum level reached in the sampled fluid or tissue. For orientation: Tmax means the time from dosing to the highest level. Usually half-life stands for the time in which the quantity being followed falls by half. By bioavailability is commonly meant dose-corrected exposure relative to a reference, in per cent. In series [1] (setting [3]), `COc1ccc2c(c1)c1c(n2CO)CN2CCc3cc(OC)c(OCc4ccccc4)cc3C2C1` (centres unmarked) [Example A1, (2-(Benzyloxy)-3,12-dimethoxy-5,6,14,14a-tetrahydroindolo[3′,2′:4,5]pyridine[2,1-a]isoquinoline-9(8H)-yl)methanol] returned a CHOL of 9.75 mmol/L, an HDL-C of 1.63 mmol/L, an LDL-C of 5.25 mmol/L and a TG of 8.16 mmol/L. Besides, in series [1] (setting [4]), the CHOL worked out at 27.93 mmol/L, the HDL-C amounted to 2.56 mmol/L, the LDL-C stood at 13.64 mmol/L and the TG amounted to 28.61 mmol/L. Moreover, the “contents of cholesterol (CHOL), triglyceride (TG) and low density lipoprotein (LDL-C) in the blood” value (“contents of cholesterol (CHOL)” below) in series [1] is “significantly reduced”. In “Rat pharmacokinetics” (iv), the AUC(0-t) was 1910 ng·h/mL, the concentration peaked (Cmax) at 1110 ng/mL, the Tmax was 0.083 h and the half-life was 2.58 h. Besides, in the series “Rat pharmacokinetics” (iv), the AUC(0-inf) came out at 1980 ng·h/mL, the clearance was 84.2 mL/min/kg, the MRT inf turned out to be 3.3 h and the Vd was 16.6 L/kg. For the same molecule, in “Rat pharmacokinetics” (po), the AUC(0-t) turned out to be 776 ng·h/mL, the Cmax was 159 ng/mL, the Tmax is 6 h and the bioavailability amounted to 20.3%. For the same molecule, the activity at 5 µM in the series on HepG2 cells is 148%.

Consider `COc1ccc2c(c1)c1c(n2CO)CN2CCc3cc(OC)c(OCc4ccc(F)cc4)cc3C2C1` (centres unmarked) [Example A5, (2-((4-fluorobenzyl)oxy)-3,12-dimethoxy-5,6,14,14a-tetrahydroindolo[3′,2′:4,5]pyridine[2,1-a]isoquinoline-9(8H)-yl)methanol], for which, in series [1] (setting [3]), the CHOL amounted to 11.36 mmol/L, the HDL-C was 1.77 mmol/L, the LDL-C was 6.16 mmol/L and the TG came to 13.26 mmol/L. In series [1] (setting [4]), this molecule returned a CHOL of 15.32 mmol/L, an HDL-C of 4.01 mmol/L, an LDL-C of 7.44 mmol/L and a TG of 15.46 mmol/L. In addition, the “contents of cholesterol (CHOL)” value in series [1] is given as “significantly reduced”. Besides, the activity at 5 µM in the series with HepG2 cells turned out to be 156%.

Take `COc1ccc2c(c1)c1c(n2CO)CN2CCc3cc(OCc4ccccc4)c(OC)cc3C2C1` (centres unmarked) [Example A55, (3-(Benzyloxy)-2,12-dimethoxy-5,6,14,14a-tetrahydroindolo[3′,2′:4,5]pyridine[2,1-a]isoquinoline-9(8H)-yl)methanol]: in series [1] (setting [3]), the CHOL is on record as 17.86 mmol/L, the HDL-C came to 2.98 mmol/L, the LDL-C stood at 9.39 mmol/L and the TG came to 19.77 mmol/L. In series [1] (setting [4]), this molecule returned a CHOL of 11.81 mmol/L, an HDL-C of 3.88 mmol/L, an LDL-C of 5.56 mmol/L and a TG of 6.74 mmol/L. Further, the “contents of cholesterol (CHOL)” value in series [1] was “significantly reduced”. For the same molecule, in the series “Rat pharmacokinetics” (iv), the AUC(0-t) came to 2720 ng·h/mL, the Cmax worked out at 2740 ng/mL, the Tmax was determined as 0.083 h and the half-life was 1.88 h. For the same molecule, in the series “Rat pharmacokinetics” (iv), the AUC(0-inf) came to 2730 ng·h/mL, the clearance is 61 mL/min/kg, the MRT inf was found to be 1.7 h and the Vd worked out at 6.41 L/kg. In addition, in the series “Rat pharmacokinetics” (po), the AUC(0-t) was found to be 334 ng·h/mL, the highest level (Cmax) was 62 ng/mL, the Tmax stood at 4 h and the bioavailability came to 6.2%. Moreover, in the series “Rat pharmacokinetics” (po), the half-life was 0.71 h, the AUC(0-inf) was 335 ng·h/mL and the MRT inf came out at 4.8 h. Also, the activity at 5 µM with HepG2 cells stood at 194%.

For the molecule `COc1cc2c(cc1OCc1ccc(C)cc1)CCN1Cc3c(c4ccccc4n3CO)CC21` (centres unmarked) [Example A70, (2-methoxy-3-((4-methylbenzyl)oxy)-5,6,14,14a-tetrahydroindolo[3′,2′:4,5]pyridine[2,1-a]isoquinoline-9(8H)-yl)methanol], in the series with HepG2 cells, the activity at 5 µM turned out to be 80.6%.

As for `COc1ccc2c(c1)c1c(n2CO)CN2CCc3cc(OC)c(OCc4ccccc4)cc3[C@@H]2C1` [(S)-A1], in the series on HepG2 cells, the activity at 5 µM was 116%.

`COc1cc2c(cc1OCc1cccc(C)c1)CCN1Cc3[nH]c4ccccc4c3CC21` (centres unmarked) [Example C107, 2-methoxy-3-((3-methylbenzyl)oxo)-5,6,8,9,14,14a-hexahydroindolo[3′,2′:4,5]pyridine[2,1-a]isoquinoline]: the activity at 5 µM in the series with HepG2 cells is 69.5%.

`COc1cc2c(cc1OCc1cccc(C)c1)CCN1Cc3c(c4ccccc4n3CO)CC21` (centres unmarked) [Example A143, (2-methoxy-3-((3-methylbenzyl)oxo)-5,6,14,14a-tetrahydroindolo[3′,2′:4,5]pyridine[2,1-a]isoquinoline-9(8H)-yl)methanol]: the activity at 5 µM in the series with HepG2 cells came out at 91.1%.

The record behind these values is US10927107B2, “Phenyl [a]indole[2,3-g]quinolizine compounds, preparation method therefor, pharmaceutical composition, and applications thereof” (Shanghai Institute of Materia Medica, Chinese Academy of …, priority 2016, dated 2021).
